{"source": "patent US9045505B2", "about": "“Nitric oxide donors” (University of Otago, priority 2006, dated 2015)", "key": {"[1]": {"experiment": "Reaction with GSH and half-life in the cytosol", "format": "physicochemical", "conditions": "cytosol (estimated) with 5 mM GSH; physiological GSH concentration of 5 mM", "procedure": "The uptake of alkylTPP molecules into mitochondria within cells is rapid, equilibrating within 5-10 min (Ross, M. F. et al. Rapid and extensive uptake and activation of hydrophobic triphenylphosphonium cations within cells. Biochem. J. 411, 633-645 (2008)), and the rate limiting step is passage across the plasma membrane with rapid subsequent uptake into mitochondria (Ross, M. F. et al. Rapid and extensive uptake and activation of hydrophobic triphenylphosphonium cations within cells. Biochem. J. 411, 633-645 (2008) and Smith, R. A., Kelso, G. F., James, A. M. & Murphy, M. P. Targeting coenzyme Q derivatives to mitochondria. Meth. Enzymol. 382, 45-67 (2004)). Consequently, once through the plasma membrane, MitoSNAP should remain in the cytosol for a very short time before uptake into mitochondria. The rate of reaction of GSH with SNAP is 5.4 M^−1.s^−1 (Hogg, N. The kinetics of S-transnitrosation-a reversible second-order reaction. Anal. Biochem. 272, 257-62 (1999)). While other pathways of MitoSNAP decay in the cytosol may also contribute, GSH is likely to be the major one and at a physiological GSH concentration of 5 mM the half-life for MitoSNAP in the cytosol should be ˜25 s, giving plenty of time for MitoSNAP uptake into mitochondria. […]"}, "[2]": {"system": "mice", "experiment": "Cardiac ischemia-reperfusion injury in vivo (LAD occlusion)", "design": "species or system mouse", "conditions": "100 ng/kg into left ventricle 5 min prior to reperfusion, 30 min LAD occlusion, 24 h recovery", "procedure": "Male C57BL/6 mice (˜25 g) were purchased from the Jackson Laboratory and handled in accordance with the procedures of the University of Rochester Committee on Animal Research. All surgical procedures were sterile and performed as described previously. Briefly, analgesics (acetaminophen 0.75 mg/ml in drinking water) were administered 24 hr before, and during the perioperative period.\nFollowing anesthesia (Avertin, 2,2,2-tribromoethanol, […] IP) mice were intubated with a 20 gauge PE catheter which was connected to a rodent ventilator (Harvard MiniVent, 120 cycles/min., 0.3 ml tidal volume). A thoracotomy was performed and the left anterior descending coronary artery (LAD) was then ligated and occluded with a 9-0 proline suture for 30 min. MitoSNAP or MitoNAP (100 ng/kg) were dissolved in 0.9% NaCl saline (final volume 50 μl) and then administered 5 min prior to reperfusion into left ventricle (LV) using 30G½ needle. Reperfusion was initiated by removing the suture. The chest and skin were sutured closed, the endotracheal tube removed and the animal returned to its cage to recover. After 24 hrs. the animal was re-anesthetized, the LAD re-ligated, and Evans' blue dye (1.0% w/v, 1.5 ml) perfused via the LV. […] Slices were scanned and infarct/AR ratios determined with NIH ImageJ software."}, "[3]": {"system": "liver mitochondria", "experiment": "Exposed protein thiols, glutathionylation and GSH/GSSG in liver mitochondria", "format": "biochemical, rat", "procedure": "Mitochondrial incubations were usually in KCl buffer (120 mM KCl, 10 mM HEPES, 1 mM EGTA, 100 μM N,N-bis(2-bis[carboxymethyl]aminoethyl) glycine (DTPA) and 10 μM neocuproine, pH 7.2) with 10 mM succinate and 4 μg/ml rotenone in the dark at 37° C., unless stated otherwise. An electrode selective for the TPP moiety of MitoSNAP and MitoNAP was made and used as described previously (Asin-Cayuela, J., Manas, A. R., James, A. M., Smith, R. A. & Murphy, M. P. Fine-tuning the hydrophobicity of a mitochondria-targeted antioxidant. FEBS Letts. 571, 9-16 (2004)). Respiration rates were measured in a Clark type O2 electrode (Rank Brothers, UK). To measure GSH and GSSG, mitochondria (1 mg protein/ml) were incubated with 0-10 μM MitoSNO1 or MitoNAP for 10 min, pelleted by centrifugation and the GSH and GSSG contents assessed by the recycling assay (Scarlett, J. L., Packer, M. A., Porteous, C. M. & Murphy, M. P. Alterations to glutathione and nicotinamide nucleotides during the mitochondrial permeability transition induced by peroxynitrite. Biochem. Pharmacol. 52, 1047-1055 (1996)). The measurement of exposed mitochondrial protein thiols is described below.\nSmall molecules were removed by centrifugation through MicroBioSpin Columns (cut off=6 kDa), the eluate was clarified by centrifugation (2 min at 10,000×g) and protein thiols measured in triplicate by mixing 10 μl sample or GSH standard with 160 μl of 200 μM dithionitrobenzoic acid (DTNB) in 80 mM NaPi, 1 mM EDTA, pH 8 in a 96 well plate and absorbance at 412 nm was measured after 30 min at room temperature and the thiol content determined from the GSH standard curve. The protein concentration was measured in parallel by the bicinchonininc assay using BSA as a standard.\nThe interaction of MitoSNAP with mitochondrial thiol proteins is likely to initiate a dynamic process that may lead to other protein thiol modifications, such as disulfide formation, glutathionylation, sulfenylation or sulfenylamide formation, in addition to persistent S-nitrosation. To assess these, the content of reactive, solvent-exposed thiols on native liver mitochondrial proteins was measured. […] This is consistent with the finding that the maximum extent of mitochondrial protein S-nitrosation by 5 μM MitoSNAP (˜500 pmol SNO/mg protein; FIG. 11) was only ˜1% of the total number of protein thiols available. A small amount of MitoSNAP binding to mitochondrial thiol proteins through the formation of mixed disulfides was detectable by immunoblotting."}}, "data": [{"smiles": "CC(=O)NC(C(=O)NCCCCC[P+](c1ccccc1)(c1ccccc1)c1ccccc1)C(C)(C)SN=O.CS(=O)(=O)[O-]", "note": "(centres unmarked) [MitoSNAP, [5-(2-acetylamino-3-methyl-3-nitrosothio-butyrylamino)-penty1]-triphenylphosphonium methanesulfonate]", "values": [{"measurement": "half-life", "setting": "[1]", "value": "~0.417", "unit": "min"}, {"measurement": "protection against heart damage (infarct/area at risk)", "setting": "[2]", "value": "Protects Against Cardiac Ischemia-Reperfusion Injury"}, {"measurement": "reactive, solvent-exposed thiols on native liver mitochondrial proteins", "setting": "[3]; 5 μM, 5 min, mean±sem, n=3", "value": "46.7±9.6", "unit": "nmol thiols/mg protein"}, {"measurement": "GSH and GSSG content of mitochondria", "setting": "[3]; 10 μM, 10 min", "value": "no loss of GSH or accumulation of GSSG"}, {"measurement": "protein-glutathione mixed disulfides (glutathionylation)", "setting": "[3]; mitochondria, MitoSNAP 5 μM", "value": "not detectable"}]}]}
